Test system: 922993-354-T-J3-PDC complex spheroids, viability
Test: Anticancer human tumor 922993-354-T-J3-PDC patient-derived endometrial carcinoma cell line growth inhibition [GQUAD]
Conditions: for IC50: curve of first compound; for viability, T/C: stronger effect = lower value
Summary of the method: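 Viability of tumor cells grown as complex spheroids with endothelial and stromal cells, exposed to drug combinations. Top concentration at or near clinical Cmax (else 10 microM), diluted in half-log increments.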

[1] = second compound 0.0316 µM, first compound 0.0316 µM
[2] = second compound 0.0316 µM, first compound 0.316 µM
[3] = second compound 0.1 µM, first compound 0.0316 µM
[4] = second compound 0.1 µM, first compound 0.316 µM
[5] = second compound 0.316 µM, first compound 0.0316 µM
[6] = second compound 0.316 µM, first compound 0.316 µM
[7] = second compound 1 µM, first compound 0.0316 µM
[8] = second compound 1 µM, first compound 0.316 µM
[9] = second compound 3.16 µM, first compound 0.0316 µM
[10] = second compound 3.16 µM, first compound 0.316 µM
[11] = second compound 10 µM, first compound 0.0316 µM
[12] = second compound 10 µM, first compound 0.316 µM
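Note: spheroids exposed to compounds for seven days.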
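Throughout, for viability, T/C: 100% = DMSO vehicle control viability.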

Cc1[nH]c2ccccc2c1CCNCc1ccc(/C=C/C(=O)NO)cc1 + CN(C)c1ccc(Nc2c3ccc(NC(=O)CCN4CCCC4)cc3nc3cc(NC(=O)CCN4CCCC4)ccc23)cc1
IC50 (second compound 0.0316 µM): > 0.316 µM
IC50 (second compound 0.1 µM): > 0.316 µM
IC50 (second compound 0.316 µM): > 0.316 µM
IC50 (second compound 1 µM): > 0.316 µM
IC50 (second compound 3.16 µM): > 0.316 µM
IC50 (second compound 10 µM): > 0.316 µM
viability, T/C (second compound 0.0316 µM, first compound 0.000999 µM): 104%
viability, T/C (second compound 0.0316 µM, first compound 0.00316 µM): 78.9%
viability, T/C (second compound 0.0316 µM, first compound 0.00999 µM): 91.6%
viability, T/C [1]: 67.8%
viability, T/C (second compound 0.0316 µM, first compound 0.0999 µM): 56.4%
viability, T/C [2]: 62.5%
viability, T/C (second compound 0.1 µM, first compound 0.000999 µM): 73.2%
viability, T/C (second compound 0.1 µM, first compound 0.00316 µM): 85.3%
viability, T/C (second compound 0.1 µM, first compound 0.00999 µM): 94.2%
viability, T/C [3]: 86.2%
viability, T/C (second compound 0.1 µM, first compound 0.0999 µM): 78.1%
viability, T/C [4]: 53.1%
viability, T/C (second compound 0.316 µM, first compound 0.000999 µM): 94.5%
viability, T/C (second compound 0.316 µM, first compound 0.00316 µM): 94.4%
viability, T/C (second compound 0.316 µM, first compound 0.00999 µM): 89.1%
viability, T/C [5]: 93%
viability, T/C (second compound 0.316 µM, first compound 0.0999 µM): 73.1%
viability, T/C [6]: 61.7%
viability, T/C (second compound 1 µM, first compound 0.000999 µM): 70.3%
viability, T/C (second compound 1 µM, first compound 0.00316 µM): 95.9%
viability, T/C (second compound 1 µM, first compound 0.00999 µM): 101%
viability, T/C [7]: 76.1%
viability, T/C (second compound 1 µM, first compound 0.0999 µM): 97%
viability, T/C [8]: 59.5%
viability, T/C (second compound 3.16 µM, first compound 0.000999 µM): 101%
viability, T/C (second compound 3.16 µM, first compound 0.00316 µM): 81.4%
viability, T/C (second compound 3.16 µM, first compound 0.00999 µM): 94.8%
viability, T/C [9]: 82.3%
viability, T/C (second compound 3.16 µM, first compound 0.0999 µM): 78.7%
viability, T/C [10]: 57.4%
viability, T/C (second compound 10 µM, first compound 0.000999 µM): 121%
viability, T/C (second compound 10 µM, first compound 0.00316 µM): 118%
viability, T/C (second compound 10 µM, first compound 0.00999 µM): 106%
viability, T/C [11]: 112%
viability, T/C (second compound 10 µM, first compound 0.0999 µM): 110%
viability, T/C [12]: 61.3%

O=C(NO)c1cnc(N2CCN(S(=O)(=O)c3ccc4ccccc4c3)CC2)nc1 + CN(C)c1ccc(Nc2c3ccc(NC(=O)CCN4CCCC4)cc3nc3cc(NC(=O)CCN4CCCC4)ccc23)cc1
IC50 (second compound 0.0316 µM): 0.39 µM
IC50 (second compound 0.1 µM): 0.475 µM
IC50 (second compound 0.316 µM): 0.442 µM
IC50 (second compound 1 µM): 0.448 µM
IC50 (second compound 3.16 µM): 0.682 µM
IC50 (second compound 10 µM): 0.689 µM
viability, T/C [1]: 107%
viability, T/C (second compound 0.0316 µM, first compound 0.1 µM): 79.2%
viability, T/C [2]: 50%
viability, T/C (second compound 0.0316 µM, first compound 1 µM): 41.5%
viability, T/C (second compound 0.0316 µM, first compound 3.16 µM): 4.18%
viability, T/C (second compound 0.0316 µM, first compound 10 µM): 0.41%
viability, T/C [3]: 79.9%
viability, T/C (second compound 0.1 µM, first compound 0.1 µM): 96.1%
viability, T/C [4]: 56.6%
viability, T/C (second compound 0.1 µM, first compound 1 µM): 29.6%
viability, T/C (second compound 0.1 µM, first compound 3.16 µM): 4.22%
viability, T/C (second compound 0.1 µM, first compound 10 µM): 0.4%
viability, T/C [5]: 96.5%
viability, T/C (second compound 0.316 µM, first compound 0.1 µM): 75%
viability, T/C [6]: 60.8%
viability, T/C (second compound 0.316 µM, first compound 1 µM): 33.4%
viability, T/C (second compound 0.316 µM, first compound 3.16 µM): 4.98%
viability, T/C (second compound 0.316 µM, first compound 10 µM): 0.4%
viability, T/C [7]: 76.7%
viability, T/C (second compound 1 µM, first compound 0.1 µM): 76.6%
viability, T/C [8]: 54.5%
viability, T/C (second compound 1 µM, first compound 1 µM): 34.5%
viability, T/C (second compound 1 µM, first compound 3.16 µM): 3.3%
viability, T/C (second compound 1 µM, first compound 10 µM): 0.44%
viability, T/C [9]: 88.3%
viability, T/C (second compound 3.16 µM, first compound 0.1 µM): 95.7%
viability, T/C [10]: 80.9%
viability, T/C (second compound 3.16 µM, first compound 1 µM): 34.3%
viability, T/C (second compound 3.16 µM, first compound 3.16 µM): 4.89%
viability, T/C (second compound 3.16 µM, first compound 10 µM): 0.4%
viability, T/C [11]: 101%
viability, T/C (second compound 10 µM, first compound 0.1 µM): 85.6%
viability, T/C [12]: 95.3%
viability, T/C (second compound 10 µM, first compound 1 µM): 29%
viability, T/C (second compound 10 µM, first compound 3.16 µM): 5.63%
viability, T/C (second compound 10 µM, first compound 10 µM): 0.55%

Reference: PubChem BioAssay AID2060489 (Molecular Pharmacology Branch, DTP, NCI, 2025)
